From PubChem BioAssay AID182 (DTP/NCI, 2004) come the findings set out here.

Structures are written as SMILES. Values joined by “and” are separate entries in the source; they are usually repeats but may differ in a detail not shown here. Equal values may be shown once. Toxic doses and inconclusive results are not listed.

The subject of this assay is BDF1 mice, P388/ADR leukemia ip, median survival T/C. As to the kind of experiment: NCI In Vivo Anticancer Drug Screen. Data for tumor model P388 Leukemia resistant to Adriamycin; NSC 123127, Developed at Scr 06 and 41 (intraperitoneal) in B6D2F1 (BDF1) mice. The note with it: endpoint: median survival time, higher = longer survival. How it is done:
The antitumor activity of compounds was measured in mice bearing transplantable tumors. Survival or tumor size were measured and the results are expressed as the measurement made in the treated group (T) divided by the measurement made in the vehicle treated control group (C). The tumor model used in this assay is P388 Leukemia resistant to Adriamycin; NSC 123127, Developed at Scr 06 and 41 (intraperitoneal) in B6D2F1 (BDF1) mice

Take `NC(C/[N+]([O-])=N/O)C(=O)O` (stereo not drawn): the T/C runs as follows: (dose: 288.0 mg/kg/injection, schedule: Q04DX003 (ip), vehicle: sodium bicarbonate) 159 % of control; (dose: 480.0 mg/kg/injection, schedule: Q04DX003 (ip), vehicle: sodium bicarbonate) 154 % of control.
In the case of `CC[C@]1(O)C[C@H]2CN(CCc3c([nH]c4ccccc34)[C@@](C(=O)OC)(c3cc4c(cc3OC)N(C=O)[C@H]3[C@@](O)(C(=O)OC)[C@H](OC(C)=O)[C@]5(CC)C=CCN6CC[C@]43[C@@H]65)C2)C1`, the T/C is, setting by setting: (dose: 0.5 mg/kg/injection, schedule: Q04DX003 (ip), vehicle: saline) 92 % of control; (dose: 0.65 mg/kg/injection, schedule: Q04DX003 (ip), vehicle: saline) 111 % of control; (dose: 1.0 mg/kg/injection, schedule: Q04DX003 (ip), vehicle: saline) 92 % of control; (dose: 1.8 mg/kg/injection, schedule: Q04DX003 (ip), vehicle: saline) 95 % of control; (dose: 3.0 mg/kg/injection, schedule: Q04DX003 (ip), vehicle: saline) 87 % of control; (dose: 389.0 micrograms/kg/injection, schedule: Q04DX003 (ip), vehicle: saline) 109 % of control. In addition, the T/C by setting is: (dose: 432.0 micrograms/kg/injection, schedule: Q04DX003 (ip), vehicle: saline) 113 % of control; (dose: 648.0 micrograms/kg/injection, schedule: Q04DX003 (ip), vehicle: saline) 112 % of control; (dose: 720.0 micrograms/kg/injection, schedule: Q04DX003 (ip), vehicle: saline) 107 % of control; (dose: 1080.0 micrograms/kg/injection, schedule: Q04DX003 (ip), vehicle: saline) 110 % of control; (dose: 1200.0 micrograms/kg/injection, schedule: Q04DX003 (ip), vehicle: saline) 101 % of control; (dose: 1800.0 micrograms/kg/injection, schedule: Q04DX003 (ip), vehicle: saline) 107 % of control.
Turning to `COc1cc([C@@H]2c3cc4c(cc3[C@@H](OC3OC5CO[C@@H](c6cccs6)OC5C(O)C3O)[C@H]3COC(=O)[C@H]23)OCO4)cc(OC)c1O` (stereo partly drawn), the T/C (dose: 13.33 mg/kg/injection, schedule: Q04DX003 (ip), vehicle: saline) was 123 % of control.
As for `COc1cccc2c1C(=O)c1c(O)c3c(c(O)c1C2=O)C[C@@](O)(C(C)=O)C[C@@H]3OC1CC(N(C)C)C(O)C(C)O1` (stereo partly drawn), the T/C reads like this: (dose: 3.46 mg/kg/injection, schedule: Q04DX003 (ip), vehicle: water) 114 % of control; (dose: 5.76 mg/kg/injection, schedule: Q04DX003 (ip), vehicle: water) 121 % of control; (dose: 9.6 mg/kg/injection, schedule: Q04DX003 (ip), vehicle: water) 113 % of control; (dose: 16.0 mg/kg/injection, schedule: Q04DX003 (ip), vehicle: water) 104 % of control.
As to `CC1OC(OC2CC(O)(C(=O)CO)Cc3c(O)c4c(c(O)c32)C(=O)c2ccccc2C4=O)CC(N)C1O` (stereo not drawn), the T/C (dose: 216.0 micrograms/kg/injection, schedule: Q04DX003 (ip), vehicle: water) was 100 % of control; the T/C (dose: 360.0 micrograms/kg/injection, schedule: Q04DX003 (ip), vehicle: water) is 102 % of control; the T/C (dose: 600.0 micrograms/kg/injection, schedule: Q04DX003 (ip), vehicle: water) is 101 % of control; the T/C (dose: 1000.0 micrograms/kg/injection, schedule: Q04DX003 (ip), vehicle: water) is 99 % of control.
For the compound `CCC1(O)CC(OC2CC(N(C)C)C(OC3CC4OC5CC(=O)C(C)OC5OC4C(C)O3)C(C)O2)c2c(cc3c(c2O)C(=O)c2c(O)ccc(O)c2C3=O)C1C(=O)OC` (stereo not drawn), the T/C was 112 % of control (dose: 0.86 mg/kg/injection, schedule: Q04DX003 (ip), vehicle: water); 115 % of control (dose: 1.3 mg/kg/injection, schedule: Q04DX003 (ip), vehicle: water); 120 % of control (dose: 1.44 mg/kg/injection, schedule: Q04DX003 (ip), vehicle: water); 124 % of control (dose: 2.4 mg/kg/injection, schedule: Q04DX003 (ip), vehicle: water).
For `N[C@H](C(=O)O)[C@@H]1CC(Cl)=NO1`, the T/C (dose: 36.0 mg/kg/injection, schedule: Q04DX003 (ip), vehicle: saline) was 122 % of control.
Turning to `CC[C@H]1CN2CCc3cc(OC)c(OC)cc3[C@@H]2C[C@@H]1C[C@@H]1c2cc(OC)c(OC)cc2CCN1CCN(CCCl)CCCl`, the T/C is 119 % of control (dose: 4.3 mg/kg/injection, schedule: Q04DX003 (ip), vehicle: saline with Tween-80) and 119 % of control (dose: 7.2 mg/kg/injection, schedule: Q04DX003 (ip), vehicle: saline with Tween-80).
As to `CSCS(=O)C[C@H](CO)NC(=O)/C=C/c1c(C)[nH]c(=O)[nH]c1=O` (stereo partly drawn), the T/C reads like this: (dose: 0.72 mg/kg/injection, schedule: Q04DX003 (ip), vehicle: saline) 88 % of control; (dose: 0.86 mg/kg/injection, schedule: Q04DX003 (ip), vehicle: saline) 100 % of control; (dose: 1.2 mg/kg/injection, schedule: Q04DX003 (ip), vehicle: saline) 86 % of control; (dose: 1.44 mg/kg/injection, schedule: Q04DX003 (ip), vehicle: saline) 114 % of control; (dose: 2.0 mg/kg/injection, schedule: Q04DX003 (ip), vehicle: saline) 86 % of control; (dose: 2.4 mg/kg/injection, schedule: Q04DX003 (ip), vehicle: saline) 119 % of control. In addition, the T/C is, setting by setting: (dose: 173.0 micrograms/kg/injection, schedule: Q01DX009 (ip), vehicle: saline) 99 % of control; (dose: 288.0 micrograms/kg/injection, schedule: Q01DX009 (ip), vehicle: saline) 99 % of control; (dose: 480.0 micrograms/kg/injection, schedule: Q01DX009 (ip), vehicle: saline) 95 % of control.
For the compound `CO[C@H]1Nc2c(ccc(C)c2O)C(=O)N2C=C(/C=C/C(N)=O)C[C@@H]12`, the T/C is, setting by setting: (dose: 216.0 micrograms/kg/injection, schedule: Q04DX003 (ip), vehicle: saline + alcohol) 154 % of control; (dose: 252.0 micrograms/kg/injection, schedule: Q04DX003 (ip), vehicle: saline + alcohol) 194 % of control; (dose: 360.0 micrograms/kg/injection, schedule: Q04DX003 (ip), vehicle: saline + alcohol) 176 % of control; (dose: 420.0 micrograms/kg/injection, schedule: Q04DX003 (ip), vehicle: saline + alcohol) 176 % of control; (dose: 600.0 micrograms/kg/injection, schedule: Q04DX003 (ip), vehicle: saline + alcohol) 90 % of control.
For `CCC1(O)CC(OC2CC(N(C)C)C(OC3CC(O)C(OC4CCC(=O)C(C)O4)C(C)O3)C(C)O2)c2c(cc3c(c2O)C(=O)c2c(O)ccc(O)c2C3=O)C1C(=O)OC` (stereo not drawn), the T/C (dose: 1.73 mg/kg/injection, schedule: Q04DX003 (ip), vehicle: water) is 105 % of control; the T/C (dose: 2.88 mg/kg/injection, schedule: Q04DX003 (ip), vehicle: water) is 107 % of control; the T/C (dose: 4.8 mg/kg/injection, schedule: Q04DX003 (ip), vehicle: water) was 119 % of control.
For the compound `Cc1c2ccncc2c(C)c2c1[nH]c1ccccc12`, the T/C reads like this: (dose: 13.0 mg/kg/injection, schedule: Q04DX003 (ip), vehicle: water) 112 % of control; (dose: 21.6 mg/kg/injection, schedule: Q04DX003 (ip), vehicle: water) 104 % of control and 109 % of control; (dose: 36.0 mg/kg/injection, schedule: Q04DX003 (ip), vehicle: water) 110 % of control and 117 % of control.
Regarding `O=P1(N(CCCl)CCCl)NCCCO1` (stereo not drawn), the T/C is, setting by setting: (dose: 108.0 mg/kg/injection, schedule: Q01DX001 (ip), vehicle: saline) 476 % of control; (dose: 180.0 mg/kg/injection, schedule: Q01DX001 (ip), vehicle: saline) 475 % of control.
With `N[C@@H](Cc1ccc(N(CCCl)CCCl)cc1)C(=O)O`, the T/C is, setting by setting: (dose: 3.6 mg/kg/injection, schedule: Q01DX001 (ip), vehicle: saline) 313 % of control; (dose: 6.0 mg/kg/injection, schedule: Q01DX001 (ip), vehicle: saline) 507 % of control; (dose: 10.0 mg/kg/injection, schedule: Q01DX001 (ip), vehicle: saline) 507 % of control; (dose: 16.7 mg/kg/injection, schedule: Q01DX001 (ip), vehicle: saline) 406 % of control.
`Nc1ncn(C2OC(CO)C(O)C2O)c(=O)n1` (stereo not drawn): the T/C by setting is: (dose: 6.48 mg/kg/injection, schedule: Q04DX003 (ip), vehicle: saline) 210 % of control; (dose: 10.8 mg/kg/injection, schedule: Q04DX003 (ip), vehicle: saline) 191 % of control; (dose: 18.0 mg/kg/injection, schedule: Q04DX003 (ip), vehicle: saline) 184 % of control; (dose: 30.0 mg/kg/injection, schedule: Q04DX003 (ip), vehicle: saline) 87 % of control.
Take `COC(=O)[C@@]12OC[C@]34[C@H]([C@@H](O)[C@@H]1O)[C@@]1(C)CC(=O)C(O)=C(C)[C@@H]1C[C@H]3OC(=O)[C@H](OC(=O)/C=C(\C)C(C)C)[C@@H]24`: the T/C by setting is: (dose: 0.65 mg/kg/injection, schedule: Q04DX003 (ip), vehicle: saline + alcohol) 113 % of control; (dose: 1.08 mg/kg/injection, schedule: Q04DX003 (ip), vehicle: saline + alcohol) 93 % of control and 97 % of control; (dose: 1.8 mg/kg/injection, schedule: Q04DX003 (ip), vehicle: saline + alcohol) 86 % of control and 90 % of control.
